Laboratory results taken from ChEMBL document CHEMBL2074542, “Differential recognition of beta -lactam antibiotics by intestinal and renal peptide transporters, PEPT 1 and PEPT 2” (J Biol Chem, 1995).
Blank lines part the entries; values can stand above or below the molecule they belong to. Peptide text beside a SMILES is read from it.

Key:
[1] = biological target: T1, Solute carrier family 15 member 2 (Homo sapiens, UniProt Q16348); assay: TP_TRANSPORTER: inhibition of Gly-Sar uptake (Gly-Sar: 50 uM) in PEPT2-expressing HeLa cells; format: functional, cell-based
T1 sequence (Q16348 whole entry): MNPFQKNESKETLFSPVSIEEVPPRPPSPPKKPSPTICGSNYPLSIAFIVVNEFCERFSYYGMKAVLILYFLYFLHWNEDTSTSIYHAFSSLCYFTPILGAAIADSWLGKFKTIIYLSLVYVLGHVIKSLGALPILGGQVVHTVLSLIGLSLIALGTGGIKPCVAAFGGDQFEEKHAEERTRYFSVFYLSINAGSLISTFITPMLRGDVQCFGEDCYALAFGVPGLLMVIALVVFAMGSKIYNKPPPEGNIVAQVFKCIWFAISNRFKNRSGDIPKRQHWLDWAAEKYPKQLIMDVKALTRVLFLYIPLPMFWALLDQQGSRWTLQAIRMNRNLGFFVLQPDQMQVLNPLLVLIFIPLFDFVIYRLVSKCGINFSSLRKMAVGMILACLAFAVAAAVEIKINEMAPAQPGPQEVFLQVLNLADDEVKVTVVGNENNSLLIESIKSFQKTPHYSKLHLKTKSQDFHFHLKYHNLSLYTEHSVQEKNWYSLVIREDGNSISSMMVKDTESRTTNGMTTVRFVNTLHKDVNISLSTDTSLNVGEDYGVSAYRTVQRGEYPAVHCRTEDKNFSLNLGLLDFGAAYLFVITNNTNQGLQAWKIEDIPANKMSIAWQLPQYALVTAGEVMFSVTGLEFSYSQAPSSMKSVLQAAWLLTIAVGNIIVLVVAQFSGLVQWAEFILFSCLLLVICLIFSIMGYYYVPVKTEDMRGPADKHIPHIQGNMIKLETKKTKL

[2] = biological target: T2, Solute carrier family 15 member 1 (Homo sapiens, UniProt P46059)
T2 sequence (P46059 whole entry): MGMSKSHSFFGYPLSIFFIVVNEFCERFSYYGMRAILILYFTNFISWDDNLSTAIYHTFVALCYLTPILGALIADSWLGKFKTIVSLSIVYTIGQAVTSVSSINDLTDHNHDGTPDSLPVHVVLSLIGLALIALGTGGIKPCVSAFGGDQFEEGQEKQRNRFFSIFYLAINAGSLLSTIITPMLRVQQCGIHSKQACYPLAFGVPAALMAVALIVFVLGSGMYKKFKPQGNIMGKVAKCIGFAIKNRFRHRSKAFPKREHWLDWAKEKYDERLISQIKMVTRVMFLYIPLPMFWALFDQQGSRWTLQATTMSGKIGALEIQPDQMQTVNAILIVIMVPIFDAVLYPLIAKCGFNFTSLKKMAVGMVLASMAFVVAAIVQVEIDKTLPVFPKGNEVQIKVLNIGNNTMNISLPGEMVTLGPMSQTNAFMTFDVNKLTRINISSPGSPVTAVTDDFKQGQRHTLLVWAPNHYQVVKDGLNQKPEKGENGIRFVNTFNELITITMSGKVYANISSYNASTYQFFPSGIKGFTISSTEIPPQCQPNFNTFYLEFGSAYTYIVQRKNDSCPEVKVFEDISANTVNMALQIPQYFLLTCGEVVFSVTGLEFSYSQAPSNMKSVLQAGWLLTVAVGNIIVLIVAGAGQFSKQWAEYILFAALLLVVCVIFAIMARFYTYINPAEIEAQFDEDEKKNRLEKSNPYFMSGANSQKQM
Description: TP_TRANSPORTER: inhibition of Gly-Sar uptake (Gly-Sar: 25 uM) in PEPT1-expressing HeLa cells

[3] = biological target: T1, Solute carrier family 15 member 2; assay: TP_TRANSPORTER: inhibition of Gly-Sar uptake in SKPT cells; format: functional, cell-based
[4] = biological target: T2, Solute carrier family 15 member 1; assay: TP_TRANSPORTER: inhibition of Gly-Sar uptake (Gly-Sar: 5 uM) in Caco-2 cells; format: functional, cell-based
[5] = biological target: T3, Solute carrier family 15 member 2 (Homo sapiens) (UniProt Q16348); assay: TP_TRANSPORTER: uptake in PEPT2-expressing HeLa cells; format: functional, cell-based
T3 sequence (whole entry): T1 sequence (Q16348 whole entry)

[6] = biological target: T1, Solute carrier family 15 member 2; assay: TP_TRANSPORTER: inhibition of Cephalexin uptake in SKPT cells; format: functional, cell-based
[7] = substrate: CC1=C(C(=O)O)N2C(=O)[C@@H](NC(=O)[C@H](N)c3ccccc3)[C@H]2SC1; assay: TP_TRANSPORTER: uptake in SKPT cells; format: functional, cell-based

- Ki [3]: 68.2 µM
- Activity [5]: substrate [+]
Molecule: CC1=C(C(=O)O)N2C(=O)[C@@H](NC(=O)[C@H](N)c3ccccc3)[C@H]2SC1 [CEPHALEXIN ANHYDROUS]

- Ki [6]: 64 µM
Molecule: CN(CC(=O)O)C(=O)CN [GLYCYLSARCOSINE] (HELM PEPTIDE1{G.[Sar]}$$$$V2.0)

Further lines, the molecule ahead of its results:

Molecule: CC1=C(C(=O)O)N2C(=O)[C@@H](NC(=O)[C@H](N)c3ccc(O)cc3)[C@H]2SC1 [CEFADROXIL]
- IC50 [1]: 66 µM
- IC50 [2]: 870 µM
- Ki [3]: 2.8 µM
- IC50 [4]: 5400 µM

Molecule: CC1(C)S[C@@H]2[C@H](NC(=O)C3(N)CCCCC3)C(=O)N2[C@H]1C(=O)O [CYCLACILLIN]
- IC50 [1]: 610 µM
- IC50 [2]: 350 µM
- Ki [3]: 39.1 µM
- IC50 [4]: 600 µM

B1: Solute carrier family 15 member 2 (Rattus norvegicus), Q63424 (protein)
chain: MNPFQKNESKETLFSPVSTEEMLPRPPSPPKKSPPKIFGSSYPVSIAFIVVNEFCERFSYYGMKAVLTLYFLYFLHWNEDTSTSVYHAFSSLCYFTPILGAAIADSWLGKFKTIIYLSLVYVLGHVFKSLGAIPILGGKMLHTILSLVGLSLIALGTGGIKPCVAAFGGDQFEEEHAEARTRYFSVFYLAINAGSLISTFITPMLRGDVKCFGQDCYALAFGVPGLLMVLALVVFAMGSKMYRKPPPEGNIVAQVIKCIWFALCNRFRNRSGDLPKRQHWLDWAAEKYPKHLIADVKALTRVLFLYIPLPMFWALLDQQGSRWTLQANKMNGDLGFFVLQPDQMQVLNPFLVLIFIPLFDLVIYRLISKCRINFSSLRKMAVGMILACLAFAVAALVETKINGMIHPQPASQEIFLQVLNLADGDVKVTVLGSRNNSLLVESVSSFQNTTHYSKLHLEAKSQDLHFHLKYNSLSVHNDHSVEEKNCYQLLIHQDGESISSMLVKDTGIKPANGMAAIRFINTLHKDLNISLDTDAPLSVGKDYGVSAYRTVLRGKYPAVHCETEDKVFSLDLGQLDFGTTYLFVITNITSQGLQAWKAEDIPVNKLSIAWQLPQYVLVTAAEVMFSVTGLEFSYSQAPSSMKSVLQAAWLLTVAVGNIIVLVVAQFSGLAQWAEFVLFSCLLLVVCLIFSVMAYYYVPLKSEDTREATDKQIPAVQGNMINLETKNTRL
- Km [7]: 49 µM
